Several values for one entry are separate records, joined by “and”; a condition that tells them apart may be missing. Identical values can stand only once.
Assays:
Type in all cases: in vivo
[1] = tested on: Russian thistle (Salsola iberica L; SASKR); experiment: Postemergence herbicidal activity of mixtures in cereal crops (greenhouse, visual injury)
Experimental: (§1) Seeds of the desired test plant species were planted in Sun Gro MetroMix® 306 planting mixture, which typically has a pH of 6.0 to 6.8 and an organic matter content of about 30 percent, in plastic pots with a surface area of 103.2 square centimeters (cm^2). When required to ensure good germination and healthy plants, a fungicide treatment and/or other chemical or physical treatment was applied. The plants were grown for 7-36 days in a greenhouse with an approximate 14 hour photoperiod which was maintained at about 18° C. during the day and 17° C. during the night. Nutrients and water were added on a regular basis and supplemental lighting was provided with overhead metal halide 1000-Watt lamps as necessary. The plants were employed for testing when they reached the second or third true leaf stage.
(§2) Treatments consisted of compound (as listed in Tables 1 through 64) and a second cereal herbicide alone and in combination. Weighed amounts of esters (methyl) or salts (TEA [triethylammonium], K [potassium]) of 4-amino-3-chloro -6-(4-chloro-2-fluoro-3-methoxyphenyl)pyridine-2-carboxylic acid (Compound A) or of 6-amino-5-chloro-2-(4-chloro-2-fluoro-3-methoxyphenyl)pyrimidine-4-carboxylic acid (Compound B), were placed in 25 milliliter (mL) glass vials and dissolved in a volume of 97:3 v/v acetone/DMSO to obtain 4.5 milligrams (mg) active ingredient (ai)/mL stock solutions. […] The concentrated stock solutions were diluted to 1.5 mg ai/mL with the addition of 2 volumes of an aqueous mixture containing acetone, water, isopropyl alcohol, DMSO, Agri-dex crop oil concentrate, and Triton® X-77 surfactant in a 64.7:26.0:6.7:2.0:0.7:0.01 v/v ratio. A dilution solution was prepared by mixing 1 volume of 97:3 v/v acetone/DMSO and 2 volumes of an aqueous mixture containing acetone, water, isopropyl alcohol, DMSO, Agri-dex crop oil concentrate, and Triton® X-77 surfactant in a 64.7:26.0:6.7:2.0:0.7:0.01 v/v ratio. Compound requirements are based upon a 12 mL application volume at a rate of 187 liters per hectare (L/ha). Spray solutions of the second cereal herbicide and experimental compound mixtures were prepared by adding the stock solutions to the appropriate amount of dilution solution to form 12 mL spray solution with active ingredients in two- and three-way combinations. Formulated compounds were applied to the plant material with an overhead Mandel track sprayer equipped with 8002E nozzles calibrated to deliver 187 L/ha over an application area of 0.503 square meters (m^2) at a spray height of 18 inches (43 cm) above average plant canopy. Control plants were sprayed in the same manner with the solvent blank.
(§3) The treated plants and control plants were placed in a greenhouse as described above and watered by sub-irrigation to prevent wash-off of the test compounds. After 20-22 days, the condition of the test plants as compared with that of the control plants was determined visually and scored on a scale of 0 to 100 percent where 0 corresponds to no injury and 100 corresponds to complete kill.
(§4) Colby's equation was used to determine the herbicidal effects expected from the mixtures (Colby, S. R. 1967. Calculation of the synergistic and antagonistic response of herbicide combinations. Weeds 15:20-22.).
(§5) The following equation was used to calculate the expected activity of mixtures containing two active ingredients, A and B: Expected=A+B−(A×B/100)

[2] = tested on: black mustard (Brassica nigra L; BRSNI); experiment: as above
Experimental: as §1, §2, §3, §4, §5

[3] = tested on: cut-leaf geranium (Geranium dissectum L; GERDI); experiment: as above
Experimental: as §1, §2, §3, §4, §5

[4] = tested on: kochia (Kochia scoparia L; KCHSC); experiment: as above
Experimental: as §1, §2, §3, §4, §5

[5] = tested on: bird's-eye speedwell (Veronica persica L; VERPE); experiment: as above
Experimental: (§6) The plants were grown for 7-36 days in a greenhouse with an approximate 14 hour photoperiod which was maintained at about 18° C. during the day and 17° C. during the night. Nutrients and water were added on a regular basis and supplemental lighting was provided with overhead metal halide 1000-Watt lamps as necessary. The plants were employed for testing when they reached the second or third true leaf stage.
(§7) Treatments consisted of compound (as listed in Tables 1 through 64) and a second cereal herbicide alone and in combination. […] Control plants were sprayed in the same manner with the solvent blank.
as §3, §5

[6] = tested on: scented mayweed (Matricaria chamomila L; MATCH); experiment: as above
Experimental: as §6, §7, §3, §5

[7] = tested on: wild pansy (Viola tricolor L; VIOTR); experiment: as above
Experimental: as §6, §7, §3, §5

[8] = tested on: chickweed (Stellaria media L; STEME); experiment: as above
Experimental: as §1, §2, §3, §4, §5

[9] = tested on: wild buckwheat (Polygonum convolvulus L; POLCO); experiment: as above
Experimental: as §1, §2, §3, §4, §5

[10] = tested on: Canada thistle (Cirsium arvense L; CIRAR); experiment: as above
Experimental: as §6, §7, §3, §5

[11] = tested on: rigid ryegrass (Lolium rigidum L; LOLRI); experiment: as above
Experimental: as §1, §2, §3, §4, §5

[12] = tested on: windgrass (Apera spica-venti L; APESV); experiment: as above; settings: Apera spica-venti, post-emergence, 3.75 g/ha, Table 15; read-out: APESV Ob
Experimental: as §1, with “When required to ensure good germination and healthy plants, a fungicide treatment and/or other chemical or physical treatment was applied.” left out
(§8) Treatments consisted of compound (as listed in Tables 1 through 64) and a second cereal herbicide alone and in combination. […] The concentrated stock solutions were diluted to 1.5 mg ai/mL with the addition of 2 volumes of an aqueous mixture containing acetone, water, isopropyl alcohol, DMSO, Agri-dex crop oil concentrate, and Triton® X-77 surfactant in a 64.7:26.0:6.7:2.0:0.7:0.01 v/v ratio. A dilution solution was prepared by mixing 1 volume of 97:3 v/v acetone/DMSO and 2 volumes of an aqueous mixture containing acetone, water, isopropyl alcohol, DMSO, Agri-dex crop oil concentrate, and Triton® X-77 surfactant in a 64.7:26.0:6.7:2.0:0.7:0.01 v/v ratio. Compound requirements are based upon a 12 mL application volume at a rate of 187 liters per hectare (L/ha). […] Formulated compounds were applied to the plant material with an overhead Mandel track sprayer equipped with 8002E nozzles calibrated to deliver 187 L/ha over an application area of 0.503 square meters (m^2) at a spray height of 18 inches […] above average plant canopy. Control plants were sprayed in the same manner with the solvent blank.
as §3, §4, §5

[13] = tested on: downy brome (Bromus tectorum L; BROTE); experiment: as above
Experimental: as §1, §2, §3, §4, §5

[14] = tested on: blackgrass (Alopecurus myosuroides L; ALOMY); experiment: Postemergence herbicidal activity of mixtures in cereal crops (greenhouse, visual injury 0-100 percent after 20-22 days); settings: 8.75 g/ha, Table 19
Experimental: as §1, with “When required to ensure good germination and healthy plants, a fungicide treatment and/or other chemical or physical treatment was applied.” left out
as §8, §3, §4, §5

Compound: Nc1cc(Cl)nc(C(=O)O)c1Cl [Aminopyralid]
- SASKR Ob ([1]; 2.5 g/ha alone): 18%
- BRSNI Ob ([2]; 2.5 g/ha alone): 0%
- GERDI Ob ([3]; 2.5 g/ha alone): 0%
- KCHSC Ob ([4]; 2.5 g/ha alone): 0%
- VERPE Ob ([5]; 2.5 g/ha alone): 0%
- MATCH Ob ([6]; 2.5 g/ha alone): 10% and 8%
- VIOTR Ob ([7]; 2.5 g/ha alone): 27%

Compound: CCC(Oc1ccc(F)c(C(F)(F)F)c1)C(=O)NCc1ccccc1 (centres unmarked) [Beflubutamid]
- BRSNI Ob ([2]; 35 g/ha): 30%
- BRSNI Ob ([2]; 70 g/ha): 30%
- STEME Ob ([8]; 35 g/ha): 10%
- STEME Ob ([8]; 70 g/ha): 10%
- GERDI Ob ([3]; 35 g/ha): 0%
- GERDI Ob ([3]; 70 g/ha): 0%
- POLCO Ob ([9]; 35 g/ha): 10%
- POLCO Ob ([9]; 70 g/ha): 20%
- VERPE Ob ([5]; 35 g/ha): 15%
- VERPE Ob ([5]; 70 g/ha): 23%
- VIOTR Ob ([7]; 35 g/ha): 15%
- VIOTR Ob ([7]; 70 g/ha): 23%

Compound: C[N+](C)(C)CCCl [Chlormequat]
- BRSNI Ob ([2]; 155 g/ha alone): 0%
- STEME Ob ([8]; 155 g/ha alone): 0%
- GERDI Ob ([3]; 155 g/ha alone): 0%
- KCHSC Ob ([4]; 155 g/ha alone): 0%
- POLCO Ob ([9]; 155 g/ha alone): 10%
- MATCH Ob ([6]; 155 g/ha alone): 0%

Compound: COc1c(Cl)ccc(-c2cc(N)c(Cl)c(C(=O)[O-])n2)c1F.[K+] [Compound A K-salt]
- SASKR Ob ([1]; 8.75 g/ha alone): 63%
- SASKR Ob ([1]; 17.5 g/ha alone): 67%
- SASKR Ob ([1]; 35 g/ha alone): 73%
- KCHSC Ob ([4]; 8.75 g/ha alone): 67%
- KCHSC Ob ([4]; 17.5 g/ha alone): 77%
- KCHSC Ob ([4]; 35 g/ha alone): 90%
- KCHSC Ob ([4]; alone 8.75 g/ha): 67%
- KCHSC Ob ([4]; alone 17.5 g/ha): 77%
- KCHSC Ob ([4]; alone 35 g/ha): 90%
- VERPE Ob ([5]; 8.75 g/ha alone): 73%
- VERPE Ob ([5]; 17.5 g/ha alone): 78%
- VERPE Ob ([5]; 35 g/ha alone): 83%
- VERPE Ob ([5]; alone 8.75 g/ha): 73%
- VERPE Ob ([5]; alone 17.5 g/ha): 78%
- VERPE Ob ([5]; alone 35 g/ha): 83%
- MATCH Ob ([6]; 8.75 g/ha alone): 50%
- MATCH Ob ([6]; 17.5 g/ha alone): 62%
- MATCH Ob ([6]; 35 g/ha alone): 57%
- MATCH Ob ([6]; alone 8.75 g/ha): 50%
- MATCH Ob ([6]; alone 17.5 g/ha): 62%
- MATCH Ob ([6]; alone 35 g/ha): 57%
- VIOTR Ob ([7]; 8.75 g/ha alone): 20%
- VIOTR Ob ([7]; 17.5 g/ha alone): 48%
- VIOTR Ob ([7]; 35 g/ha alone): 42%

Compound: COc1ncc(F)c2nc(S(=O)(=O)Nc3c(F)cccc3F)nn12 [Florasulam]
- CIRAR Ob ([10]; 1.25 g/ha): 20%
- VERPE Ob ([5]; 1.25 g/ha): 5%
- VERPE Ob ([5]; 1.3 g/ha alone): 28%
- MATCH Ob ([6]; 1.3 g/ha alone): 83%
- VIOTR Ob ([7]; 1.25 g/ha): 10%
- VIOTR Ob ([7]; 1.3 g/ha alone): 53%

Compound: COc1cc(OC)nc(NC(=O)NS(=O)(=O)c2nc(C(F)(F)F)ccc2C(=O)O)n1 [Flupyrsulfuron, 2-[[[[(4,6-dimethoxy-2-pyrimidinyl)amino]carbonyl]amino]sulfonyl]-6-(trifluoromethyl)-3-pyridinecarboxylic acid, reference compound]
- LOLRI Ob ([11]; 5 g/ha, Table 12): 0%
- CIRAR Ob ([10]; 5 g/ha): 20%
- VERPE Ob ([5]; 5 g/ha): 0%
- pest or weed control at 5 g/ha ([5]; Veronica persica, post-emergence, read-out: VERPE Ob): 0%
- pest or weed control at 5 g/ha ([7]; Viola tricolor, post-emergence, read-out: VIOTR Ob): 0%

Compound: CC(C)c1ccc(NC(=O)N(C)C)cc1 [Isoproturon]
- SASKR Ob ([1]; 300 g/ha alone): 33%
- pest or weed control at 300 g/ha ([2]; Brassica, post-emergence, 300 g/ha alone, read-out: BRSNI Ob): 40%
- KCHSC Ob ([4]; 300 g/ha alone): 50%
- pest or weed control at 300 g/ha ([7]; Viola tricolor, post-emergence, 300 g/ha alone, read-out: VIOTR Ob): 0%

Compound: COc1cc(OC)nc(NC(=O)NS(=O)(=O)c2cc(CNS(C)(=O)=O)ccc2C(=O)O)n1 [Mesosulfuron, 2-[[[[(4,6-dimethoxy-2-pyrimidinyl)amino]carbonyl]amino]sulfonyl]-4-[[(methylsulfonyl)amino]-methyl]benzoic acid, reference compound]
- pest or weed control at 3.75 g/ha [12]: 93%
- pest or weed control at 3.75 g/ha ([8]; Stellaria media, post-emergence, 3.75 g/ha, read-out: STEME Ob): 0%
- BROTE Ob ([13]; 3.75 g/ha, Table 15): 75%
- BROTE Ob ([13]; 3.8 g/ha, Table 8): 73%
- CIRAR Ob ([10]; 3.75 g/ha): 20%
- pest or weed control at 3.75 g/ha ([6]; Matricaria, post-emergence, 3.75 g/ha, read-out: MATCH Ob): 5%

Compound: CCCN(CCC)C(=O)SCc1ccccc1 [Prosulfocarb]
- SASKR Ob ([1]; 500 g/ha alone): 0%
- pest or weed control at 500 g/ha ([8]; Stellaria media, post-emergence, 500 g/ha alone, read-out: STEME Ob): 0%
- pest or weed control at 500 g/ha ([6]; Matricaria, post-emergence, 500 g/ha alone, read-out: MATCH Ob): 0%

Compound: CCS(=O)(=O)c1nc2ccccn2c1S(=O)(=O)NC(=O)Nc1nc(OC)cc(OC)n1 [Sulfosulfuron, N-[[(4,6-dimethoxy-2-pyrimidinyl)amino]carbonyl]-2-(ethylsulfonyl)imidazo[1,2-a]pyridine-3-sulfonamide, reference compound]
- ALOMY Ob [14]: 85%
- LOLRI ([11]; 8.75 g/ha, Table 19): 10%
- CIRAR Ob ([10]; 8.75 g/ha): 10%
- pest or weed control at 8.75 g/ha ([5]; Veronica persica, post-emergence, 8.75 g/ha, read-out: VERPE Ob): 30%
